# From patent US7632654B2, “Means and methods for detecting endoglycosidase activity” (Academisch Ziekenhuis bij de Universiteit van Amsterdam, priority 2002, dated 2009)
# T1: lysozyme from human milk (Homo sapiens, UniProt P61626)
# T1 construct: lysozyme from human milk; purchased Sigma; host or cells: human milk
# T1 sequence (P61626 19-148): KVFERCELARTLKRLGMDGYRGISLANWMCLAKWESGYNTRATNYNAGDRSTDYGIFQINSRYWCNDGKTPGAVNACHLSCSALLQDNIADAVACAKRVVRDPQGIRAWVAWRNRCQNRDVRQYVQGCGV
# T2: lysozyme from human neutrophils (Homo sapiens, UniProt P61626)
# T2 construct: lysozyme from human neutrophils; purchased Sigma; host or cells: human neutrophils
# T2 sequence (P61626 19-148): T1 sequence (P61626 19-148)
# B1: aiglucerase: enzyme replacement therapy for Gaucher disease (protein, UniProt P04062 40-536, looked up)
# Lysosomal acid …: ARPCIPKSFGYSSVVCVCNATYCDSFDPPTFPALGTFSRYESTRSGRRMELSMGPIQANHTGTGLLLTLQPEQKFQKVKGFGGAMTDAAALNILALSPPAQNLLLKSYFSEEGIGYNIIRVPMASCDFSIRTYTYADTPDDFQLHNFSLPEEDTKLKIPLIHRALQLAQRPVSLLASPWTSPTWLKTNGAVNGKGSLKGQPGDIYHQTWARYFVKFLDAYAEHKLQFWAVTAENEPSAGLLSGYPFQCLGFTPEHQRDFIARDLGPTLANSTHHNVRLLMLDDQRLLLPHWAKVVLTDPEAAKYVHGIAVHWYLDFLAPAKATLGETHRLFPNTMLFASEACVGSKFWEQSVRLGSWDRGMQYSHSIITNLLYHVVGWTDWNLALNPEGGPNWVRNFVDSPIIVDITKDTFYKQPMFYHLGHFSKFIPEGSQRVGLVASQKNDLDAVALMHPDGSAVVVVLNRSSKDVPLTIKDPAVGFLETISPGYSIHTYLWRRQ
# modifications: mannose-terminated glycans
# notes: enzyme replacement therapy for Gaucher disease
# B2: G-CSF: granulocyte colony stimulating factor (protein, UniProt P09919 31-207, looked up)
# Granulocyte …: TPLGPASSLPQSFLLKCLEQVRKIQGDGAALQEKLVSECATYKLCHPEELVLLGHSLGIPWAPLSSCPSQALQLAGCLSQLHSGLFLYQGLLQALEGISPELGPTLDTLQLDVADFATTIWQQMEELGMAPALQPTQGAMPAFASAFQRRAGGVLVASHLQSFLEVSYRVLRHLAQP
# B3: recombinant beta-1B interferon: recombinant beta-1B interferon treatment of an MS patient (protein, UniProt P01574 22-187, looked up, variant C17S)
# Interferon beta: MSYNLLGFLQRSSNFQSQKLLWQLNGRLEYCLKDRMNFDIPEEIKQLQQFQKEDAALTIYEMLQNIFAIFRQDSSSTGWNETIVENLLANVYHQINHLKTVLEEKLEKEDFTRGKLMSSLHLKRYYGRILHYLKAKEYSHCAWTIVRVEILRNFYFINRLTGYLRN
# modifications: lacks N-terminal Met, non-glycosylated
# notes: recombinant beta-1B interferon treatment of an MS patient
# Legend:
# [1] = tested on: bacterial chitinase, 39 and 50 kDa forms of human and mouse chitotriosidase and AMCases, fetal calf serum chitinase; experiment: CHIS versus 4-MU-chitobiose as substrate for other chitinases; format: biochemical; conditions: in all cases (not shown)
# Method: For this purpose, assays were performed with CHIS and 4-MU-chitobiose as substrate with bacterial chitinase (Sigma), purified recombinant 39 and 50 kDa forms of human and mouse chitotriosidase and AMCases and purified fetal calf serum chitinase.
# [2] = molecular target: T3, chitotriosidase (Homo sapiens, UniProt Q13231); experiment: incubation of pure chitotriosidase with 4-MU-hexosamine and PNP-chitobiose (hydrolysis/transglycosylation); format: biochemical; conditions: substrate alone, 50 microM
# T3 construct: made in house
# Method: FIG. 2. […] Activity of 50 kDa recombinant human chitotriosidase towards PNPchitobiose, 4MU-hexosamine and a mixture of both substrates. Panel A: incubation 1. Enzyme was incubated with 50 microM PNPchitobiose and the reaction was stopped at indicated time points by adding excess of 0.2 M glycine-NaOH @H1O.3). Release of the hydrolysis product p-nitrophenol was determined spectrometrically at […]. Panel B: incubation 2. Enzyme was incubated with 50 microM 4MU-hexosamine and the reaction was stopped at indicated time points by adding excess of 0.2 M glycine-NaOH (pHlO.3). Release of the hydrolysis product 4-methyl-umbelliferone was determined fluorometrically (excitation at 366 nm; emission at 445 nm). Panel C: incubation 3. Enzyme was incubated with 50 microM PNPchitobiose and 50 microM 4MU-hexosamine and the reaction was stopped at indicated time points by adding excess of 0.2 M glycine-NaOH (pHlO.3). Release of hydrolysis products was measured spectrometrically and fluoremetrically.
# FIG. 2A. Transglycosylation by chitotriosidase. Explanation for the outcome of the experiment depictured in FIG. 2. Chitotriosidase is able to remove chitobiose-unit from PNP-chitobiose, resulting in release of PNP that is spectrometrically detected. (FIG. 2 panel A). […]
# [3] = molecular target: T4, 50 kDa chitotriosidase (Homo sapiens, UniProt Q13231); experiment: hydrolysis of 4-MU substrates by pure 50 kDa chitotriosidase, fluorimetric 4-MU release; format: biochemical; conditions: 37 C
# T4 construct: made in house
# Method: FIG. 3. Substrate concentration dependency of chitriosidase activity with novel artificial substrate as compared to present one. Activity of 50 kDa chitotriosdase towards 4-MU-chitobiose and 4-deoxy-variant hereof (CHIS1). Enzyme was incubated at 37 C with indicated concentrations of substrates. Reactions were stopped after 10 minutes and 4-MU measured fluorometrically.
# FIG. 4. Improved linearity of chitotriosidase assay with time and enzyme concentration. Activity of 50 kDa chitotriosdase towards 4-MU-chitobiose and 4-deoxy-variant hereof (CHIS). Reaction time (FIG. 5a) and concentration of enzyme (FIG. 5b) were varied and enzyme activity was measured with 4MU-chitobiose and 4-deoxy-variant hereof.
# The CHISI compound was tested as substrate. For this purpose, pure 50 kDa chitotriosidase was incubated with this substrate at 37 C in Mclvaine buffer (pH 5.5). For comparison the enzymes were in parallel incubated with 4-MU-chitobiose (Sigma). The reaction was stopped by adding excess of 0.1 M glycine-NaOH @H 10.3) and fluorescence was monitored (excitation at 366 nm, emission at 445 nm).
# Even more importantly, saturating substrate concentrations (100-200 microM) can be used in the case of CHIS (Km of chitotriosidase is 50 microM). This renders a great improvement with regard to reproducibility of the assay and interpretation of results. […]
# [4] = molecular target: T1, lysozyme from human milk; experiment: substrate preference of lysozyme, 4MU release; format: biochemical; conditions: lysozyme from human milk (Sigma)
# Text: (§1) Substrate preference of lysozyme. The enzymatic activity of commercial lysozyme preparations was 25 measured with 4-MU-chitobioside and 4MU-deoxychitbioside substrates. The release of 4MU was detected fluorimetrically, as described before. Similar to the findings for chitotriosidase (chitinase), the activity measured with the deoxy-subsytrate is far higher: […]
# [5] = molecular target: T5, lysozyme from chicken egg (Gallus gallus, UniProt P00698); experiment: substrate preference of lysozyme, 4MU release; format: biochemical; conditions: lysozyme from chicken egg (Sigma)
# T5 construct: lysozyme from chicken egg; purchased Sigma; host or cells: chicken egg
# Text: as §1
# [6] = molecular target: T2, lysozyme from human neutrophils; experiment: substrate preference of lysozyme, 4MU release; format: biochemical; conditions: lysozyme from human neutrophils (Sigma)
# Text: as §1
# [7] = tested on: plasma chitotriosidase; experiment: plasma chitotriosidase in Gaucher patients following therapeutic interventions; format: in vivo, human; conditions: first patients in Europe treated, measured with 4MU-chitotriose, FIG. 7
# Text: Besides its use in the confirmation of the diagnosis of Gaucher disease, the measurement of plasma chitotriosidase activity is extremely valuable in decision making regarding initiation of costly therapeutic intervention and optimizing treatment dosing regimens (Aerts et al, 1997; Young et al., 1997; Cox et al., 2000). […] It can be seen that onset of disease can be accurately monitored by monitoring plasma enzyme level. Initiation of therapy results in reductions of the plasma marker of the pathological Gaucher cells. […] In many countries regular measurement of plasma chitotriosidase is now used to monitor response to therapy and increases in plasma chitotriosidase levels are used as a criterion to initiate treatment. The plasma chitotriosidase now plays an important role in the clinical management of Gaucher patients. The European Working Group on Gaucher Disease has recommended its use.
# FIG. 7. […] Responses in plasma enzyme level in the first patient in Europe treated with enzyme replacement therapy (aiglucerase) and the first patient in Europe treated with substrate deprivation therapy (butyldeoxynojirimycin). Enzyme activities were measured with 4MU-chitotriose as described in Hollak et al., 1994.
# [8] = tested on: plasma chitotriosidase; experiment: plasma chitotriosidase in sarcoidosis patients treated with corticosteroids; format: in vivo, human; conditions: sarcoidosis patient, orally 25 mg
# Method: Sarcoidosis is treated by administration of corticosteroids. Determination of optimal drug dosage is critical but unfortunately also complicated. It was studied whether plasma chitotriosidase levels change upon treatment. […] However, tapering of the dose to 5 mg per day after 17 weeks was followed by recurrence of disease activity while chitotriosidase activity increment preceded the worsening of symptoms. Another interesting finding concerns a patient that was treated with corticosteroid pulse therapy (1000 mg methyiprednisone for three days every 2 weeks). […] This was accompanied by marked clinical improvement.
# [9] = tested on: serum chitotriosidase; experiment: serum chitotriosidase after G-CSF or GM-CSF in healthy volunteers; format: in vivo, human; conditions: parallel to lactoferrin
# Method: Neutrophil Activation. To test the potential of chitotriosidase as a marker for the release of specific granules of neutrophils, we examined samples obtained in earlier studies in which granulocyte colony stimulating factor (G-CSF) or granulocyte-macrophage colony stimulating factor (GM-CSF) were administered to healthy volunteers. In these experiments it was previously shown that degranulation of the specific granules of neutrophils occurs. Neutrophils release their specific granule content after 2 hours after G-CSF injection, as detectable by the appearance of lactoferrin in the circulation. […] The increase in lactoferrin and chitotriosidase is not due to an increase in neutrophil cell number, because these levels peak later in time, after about 12 hours. A second peak in lactoferrin and chitotriosidase levels is seen after […] after G-CSF injection.
# [10] = tested on: CSF chitotriosidase; experiment: CSF chitotriosidase in an MS patient under treatment; format: in vivo, human; conditions: one MS patient
# Method: Multiple sclerosis (MS) is a presumed T-cell mediated Thi type autoimmune disease. In the pathophysiology of multiple sclerosis (MS) an important role is envisioned for activated T-lymphocytes and macrophages. It is generally thought that macrophages and resident brain microglia are agents of the demyelization that occurs in MS. Chitotriosidase activity was determined in plasma and cerebral spine fluid (CSF) of MS patients. In CSF of patients, but not in plasma, chitotriosidase activity is clearly elevated in relation to manifestation of MS. In a MS patient receiving recombinant beta-1B interferon treatment a concomitant 10-fold reduction in CSF chitotriosidase was noted by us. These findings indicate that chitotriosidase measurement is useful to assess the presence of activated phagocytes in the brain of MS patients and correction therein following treatment.
# T3 sequence (Q13231 22-466): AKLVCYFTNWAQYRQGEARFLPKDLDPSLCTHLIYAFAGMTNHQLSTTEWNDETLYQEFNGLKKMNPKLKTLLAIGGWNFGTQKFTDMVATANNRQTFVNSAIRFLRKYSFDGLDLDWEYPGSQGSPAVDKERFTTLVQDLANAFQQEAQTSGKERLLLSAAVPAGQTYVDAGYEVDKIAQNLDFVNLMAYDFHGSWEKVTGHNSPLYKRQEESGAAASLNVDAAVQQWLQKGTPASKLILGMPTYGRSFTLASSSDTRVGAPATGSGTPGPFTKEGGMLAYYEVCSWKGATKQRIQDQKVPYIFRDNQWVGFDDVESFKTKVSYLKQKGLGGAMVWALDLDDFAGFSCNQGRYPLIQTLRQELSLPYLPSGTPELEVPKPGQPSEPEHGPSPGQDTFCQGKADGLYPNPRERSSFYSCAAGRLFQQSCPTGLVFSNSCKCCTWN
# T4 sequence (Q13231 22-466): as above
# T5 sequence (P00698 19-147): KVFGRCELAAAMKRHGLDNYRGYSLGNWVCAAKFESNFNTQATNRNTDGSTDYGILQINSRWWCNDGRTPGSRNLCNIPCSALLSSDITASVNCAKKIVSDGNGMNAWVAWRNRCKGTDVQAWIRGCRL
molecule,measurement,setting,value
"CC(=O)N[C@H]1[C@H](Oc2ccc3c(C)cc(=O)oc3c2)O[C@H](CO)[C@@H](O[C@@H]2O[C@H](CO)[C@@H](O)[C@H](O)[C@H]2NC(C)=O)[C@@H]1O [4-MU-chitobiose, reference compound]",substrate behaviour with other chitinases,[1],showed apparent substrate inhibition at sub saturating concentrations
"CC(=O)N[C@H]1C(Oc2ccc3c(C)cc(=O)oc3c2)O[C@H](CO)[C@@H](O)[C@@H]1O (some centres unmarked) [4-MU-hexosamine, 4-methylumbelliferyl-N-acetyiglucosamine]",substrate of chitotriosidase (release of 4-MU or PNP),[2],no substrate
"CC(=O)N[C@H]1[C@H](Oc2ccc3c(C)cc(=O)oc3c2)O[C@H](CO)[C@@H](O[C@@H]2O[C@H](CO)C[C@H](O)[C@H]2NC(C)=O)[C@@H]1O [CHIS1, 4-methylumbellyferyl 2-acetamido-2-deoxy-4-0-(2-acetamido-2,4-dideoxy-beta-D-glucopyranosyl)-beta-Dglucopyranoside]",Km,[3]; Mclvaine buffer pH 5.5,50 µM
same,substrate inhibition,"[3]; pure 50 kDa chitotriosidase, pH 5.5, FIG. 3",does not show substrate inhibition
same,ratio 4MU-deoxychitobioside/4Mu-chitobioside,[4],2.5-3.0
same,ratio 4MU-deoxychitobioside/4Mu-chitobioside,[5],2.1-2.4
same,ratio 4MU-deoxychitobioside/4Mu-chitobioside,[6],3.0-3.2
same,substrate behaviour with other chitinases,[1],far more sensitive and linear at saturating substrate concentration
CC(=O)N[C@H]1[C@H](Oc2ccc([N+](=O)[O-])cc2)O[C@H](CO)[C@@H](O[C@@H]2O[C@H](CO)[C@@H](O)[C@H](O)[C@H]2NC(C)=O)[C@@H]1O [PNP-chitobiose],substrate of chitotriosidase (release of 4-MU or PNP),[2],is a substrate
"CCCCN1C[C@H](O)[C@@H](O)[C@H](O)[C@H]1CO [butyldeoxynojirimycin, reference compound]",response in plasma chitotriosidase,[7],Corrections in plasma chitotriosidase
C[C@]12C=CC(=O)C=C1CC[C@@H]1[C@@H]2C(=O)C[C@@]2(C)[C@H]1CC[C@]2(O)C(=O)CO [prednisone],chitotriosidase activity upon treatment,[8],markedly decreased
B1,response in plasma chitotriosidase,[7],Corrections in plasma chitotriosidase
B2,serum chitotriosidase levels,[9],Parallel increases
B3,reduction in CSF chitotriosidase,[10],10 fold
